Data taken from paper PMC6553708 (PLoS ONE, 2019).
Where “and” joins values, the source holds several entries; their conditions need not be identical. Equal entries are not always repeated. Where two headings read alike, the source gives them in different places.

Columns and labels:
Mu Opioid Receptor (MOR) [1] = molecular target: T1, Mu Opioid Receptor (MOR) (Homo sapiens, UniProt P35372); assay: biochemical; settings: for Emax: read-out: MOR EMAX (35S-GTPγS)
[2] = molecular target: T2, Kappa Opioid Receptor (KOR) (Homo sapiens, UniProt P41145); assay: biochemical; assay type: binding
T2 construct: membranes used

[3] = molecular target: T2, Kappa Opioid Receptor (KOR); assay type: biochemical
[4] = molecular target: T3, Dopamine Transporter (DAT) (Homo sapiens, UniProt Q01959); assay: biochemical; assay type: binding
T3 construct: HA (N); host or cells: HEK293 (ATCC CRL-1573), electroporated, G418-selected population

[5] = molecular target: T3, Dopamine Transporter (DAT); assay: cell-based; assay type: cell-based; settings: for Emax at 10 µM: read-out: DAT IMAX, in parentheses: maximum efficacy at 10 μM
[6] = molecular target: T4, Norepinephrine Transporter (NET) (Homo sapiens, UniProt P23975); assay: cell-based; settings: for Emax at 10 µM: read-out: NET IMAX, in parentheses: maximum efficacy at 10 μM
T4 construct: HA (N); host or cells: HEK293 (ATCC CRL-1573), electroporated, G418-selected population

[7] = molecular target: T2, Kappa Opioid Receptor (KOR); assay: biochemical; settings: for Emax at 10 µM: read-out: KOR EMAX, in parentheses: maximum efficacy at 10 μM
MOR = settings: cited from earlier work
[8] = cited from earlier work
[9] = molecular target: T5, Serotonin Transporter (SERT) (Homo sapiens, UniProt P31645); assay: cell-based
T5 construct: HA (N); host or cells: HEK293 (ATCC CRL-1573), electroporated, G418-selected population

Sigma-1 Receptor (σ1R) = molecular target: T6, Sigma-1 Receptor (σ1R) (Homo sapiens, UniProt Q99720); assay: biochemical; assay type: binding
T6 construct: HA (N); host or cells: HEK293 (ATCC CRL-1573), electroporated, G418-selected population; membranes used

[10] = molecular target: T5, Serotonin Transporter (SERT); assay: biochemical; assay type: binding
Mu Opioid Receptor (MOR) [11] = molecular target: T1, Mu Opioid Receptor (MOR); assay: biochemical; assay type: binding
[12] = molecular target: T7, Cannabinoid Receptor Type 1 (CB1) (Homo sapiens, UniProt P21554); assay: biochemical
T7 construct: membranes used

[13] = molecular target: T8, Delta Opioid Receptor (DOR) (Homo sapiens, UniProt P41143); assay type: biochemical
T8 construct: 3X-hemagglutinin (HA) (N); expressed in transfected cells; membranes used

CD-1 mice = settings: male CD-1 mice

T6 sequence (Q99720 whole entry): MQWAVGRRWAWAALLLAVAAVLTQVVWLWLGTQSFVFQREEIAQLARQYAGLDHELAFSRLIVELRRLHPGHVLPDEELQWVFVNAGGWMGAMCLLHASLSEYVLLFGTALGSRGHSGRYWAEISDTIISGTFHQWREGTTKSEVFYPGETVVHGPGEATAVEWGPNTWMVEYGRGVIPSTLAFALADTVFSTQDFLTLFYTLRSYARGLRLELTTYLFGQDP
T5 sequence (P31645 whole entry): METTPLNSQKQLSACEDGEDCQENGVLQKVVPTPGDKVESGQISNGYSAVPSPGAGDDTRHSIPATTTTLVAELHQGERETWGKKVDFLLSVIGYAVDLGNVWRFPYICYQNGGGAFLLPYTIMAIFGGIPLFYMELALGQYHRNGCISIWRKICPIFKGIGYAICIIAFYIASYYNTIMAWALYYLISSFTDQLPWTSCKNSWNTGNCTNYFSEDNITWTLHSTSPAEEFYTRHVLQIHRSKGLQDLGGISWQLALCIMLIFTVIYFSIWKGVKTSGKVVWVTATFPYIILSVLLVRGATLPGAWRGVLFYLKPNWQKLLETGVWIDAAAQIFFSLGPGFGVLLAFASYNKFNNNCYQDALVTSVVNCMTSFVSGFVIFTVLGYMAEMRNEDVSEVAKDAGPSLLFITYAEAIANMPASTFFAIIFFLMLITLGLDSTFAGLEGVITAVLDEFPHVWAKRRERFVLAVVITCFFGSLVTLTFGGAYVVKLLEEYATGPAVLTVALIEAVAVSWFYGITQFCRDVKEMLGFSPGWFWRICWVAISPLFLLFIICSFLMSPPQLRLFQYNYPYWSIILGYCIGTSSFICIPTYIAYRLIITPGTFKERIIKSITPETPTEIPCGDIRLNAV
T7 sequence (P21554 whole entry): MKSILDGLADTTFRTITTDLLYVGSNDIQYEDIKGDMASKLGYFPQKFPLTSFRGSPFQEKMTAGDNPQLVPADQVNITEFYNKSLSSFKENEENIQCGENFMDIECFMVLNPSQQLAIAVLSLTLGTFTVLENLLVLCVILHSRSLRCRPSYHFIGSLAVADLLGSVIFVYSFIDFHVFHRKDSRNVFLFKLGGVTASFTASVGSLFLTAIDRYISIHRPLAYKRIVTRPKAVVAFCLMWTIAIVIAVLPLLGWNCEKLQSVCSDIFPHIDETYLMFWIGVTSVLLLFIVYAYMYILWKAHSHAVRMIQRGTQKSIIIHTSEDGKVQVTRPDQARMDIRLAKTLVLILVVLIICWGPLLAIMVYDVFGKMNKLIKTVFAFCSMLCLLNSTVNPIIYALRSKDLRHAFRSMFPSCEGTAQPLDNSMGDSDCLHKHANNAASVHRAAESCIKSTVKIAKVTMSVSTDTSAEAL
T2 sequence (P41145 whole entry): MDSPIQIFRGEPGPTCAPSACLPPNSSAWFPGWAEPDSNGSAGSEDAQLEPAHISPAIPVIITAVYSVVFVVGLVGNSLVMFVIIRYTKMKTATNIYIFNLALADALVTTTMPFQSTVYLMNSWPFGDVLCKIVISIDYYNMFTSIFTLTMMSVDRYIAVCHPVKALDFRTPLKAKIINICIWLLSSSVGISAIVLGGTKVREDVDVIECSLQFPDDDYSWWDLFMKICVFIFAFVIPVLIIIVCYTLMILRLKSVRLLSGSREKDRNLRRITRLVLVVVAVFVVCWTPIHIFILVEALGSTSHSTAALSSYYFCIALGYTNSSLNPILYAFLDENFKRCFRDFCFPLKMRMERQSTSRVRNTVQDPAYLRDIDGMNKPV
T8 sequence (P41143 whole entry): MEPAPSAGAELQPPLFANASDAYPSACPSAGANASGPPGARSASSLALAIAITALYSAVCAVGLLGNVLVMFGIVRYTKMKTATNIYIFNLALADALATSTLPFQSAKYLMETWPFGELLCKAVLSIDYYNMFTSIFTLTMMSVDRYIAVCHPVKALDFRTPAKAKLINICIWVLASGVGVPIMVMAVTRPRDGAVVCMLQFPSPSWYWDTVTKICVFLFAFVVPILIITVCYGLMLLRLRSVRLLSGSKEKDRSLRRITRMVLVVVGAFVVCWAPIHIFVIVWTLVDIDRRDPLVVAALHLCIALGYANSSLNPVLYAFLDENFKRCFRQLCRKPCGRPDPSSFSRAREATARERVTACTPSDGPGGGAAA
T1 sequence (P35372 whole entry): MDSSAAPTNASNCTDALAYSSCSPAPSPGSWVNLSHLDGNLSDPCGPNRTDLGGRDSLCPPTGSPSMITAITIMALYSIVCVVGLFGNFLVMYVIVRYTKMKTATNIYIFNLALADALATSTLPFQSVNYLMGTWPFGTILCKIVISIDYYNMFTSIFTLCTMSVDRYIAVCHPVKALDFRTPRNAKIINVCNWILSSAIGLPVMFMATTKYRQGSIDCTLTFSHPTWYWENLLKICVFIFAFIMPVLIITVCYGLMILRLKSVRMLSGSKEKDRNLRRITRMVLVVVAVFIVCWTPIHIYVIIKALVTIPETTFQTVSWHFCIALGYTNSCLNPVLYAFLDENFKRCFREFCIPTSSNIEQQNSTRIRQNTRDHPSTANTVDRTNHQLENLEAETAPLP
T3 sequence (Q01959 whole entry): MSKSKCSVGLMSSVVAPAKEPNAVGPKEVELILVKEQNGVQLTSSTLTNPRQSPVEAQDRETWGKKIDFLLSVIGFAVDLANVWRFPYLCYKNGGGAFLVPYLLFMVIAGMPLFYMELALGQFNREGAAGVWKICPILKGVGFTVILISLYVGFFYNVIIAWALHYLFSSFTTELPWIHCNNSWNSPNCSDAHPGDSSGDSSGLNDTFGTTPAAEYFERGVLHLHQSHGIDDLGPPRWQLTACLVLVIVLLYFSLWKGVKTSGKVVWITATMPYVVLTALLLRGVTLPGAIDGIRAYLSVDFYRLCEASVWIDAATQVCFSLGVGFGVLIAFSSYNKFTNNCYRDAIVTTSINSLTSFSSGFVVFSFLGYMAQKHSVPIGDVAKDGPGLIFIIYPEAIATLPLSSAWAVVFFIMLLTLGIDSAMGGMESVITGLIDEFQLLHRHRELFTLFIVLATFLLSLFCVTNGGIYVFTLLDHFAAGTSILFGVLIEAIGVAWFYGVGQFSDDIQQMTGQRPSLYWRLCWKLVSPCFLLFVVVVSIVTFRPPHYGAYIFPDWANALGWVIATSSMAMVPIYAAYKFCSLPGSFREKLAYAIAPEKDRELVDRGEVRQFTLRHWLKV
T4 sequence (P23975 whole entry): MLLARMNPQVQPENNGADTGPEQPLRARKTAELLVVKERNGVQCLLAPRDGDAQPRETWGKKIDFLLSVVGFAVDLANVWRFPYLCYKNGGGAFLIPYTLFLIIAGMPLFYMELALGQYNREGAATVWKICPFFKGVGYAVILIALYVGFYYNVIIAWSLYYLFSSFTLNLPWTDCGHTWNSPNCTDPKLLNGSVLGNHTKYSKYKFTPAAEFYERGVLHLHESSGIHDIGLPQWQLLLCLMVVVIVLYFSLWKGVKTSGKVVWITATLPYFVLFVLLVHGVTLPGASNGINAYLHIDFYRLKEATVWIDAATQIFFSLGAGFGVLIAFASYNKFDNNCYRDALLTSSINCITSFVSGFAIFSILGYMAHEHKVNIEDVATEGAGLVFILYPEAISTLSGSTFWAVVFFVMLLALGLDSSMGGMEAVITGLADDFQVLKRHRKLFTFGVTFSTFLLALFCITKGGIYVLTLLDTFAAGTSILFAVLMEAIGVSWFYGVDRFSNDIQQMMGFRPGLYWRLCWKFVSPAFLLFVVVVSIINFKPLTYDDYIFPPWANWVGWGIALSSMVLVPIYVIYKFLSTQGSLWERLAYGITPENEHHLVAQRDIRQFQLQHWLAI

With `COc1cccc(C2(O)CCCCC2CN(C)C)c1` (stereo not shown) [Tramadol] the “MOR EMAX (35S-GTPγS)” value (Mu Opioid Receptor (MOR) [1]) was 26 ± 6%, the Emax (Mu Opioid Receptor (MOR) [1]) was 25.5% and the Ki [2] was 890 ± 33 nM. The “KOR antagonist activity (in words)” value [3] was “no KOR antagonist activity”, the Ki [4] was over 2000 nM and the IC50 [5] was over 10000 nM. It also gave an Emax at 10 µM [5] of 22% and an Emax at 10 µM [6] of 57%.

In the case of `NC(=O)[C@H](Cc1ccccc1)NC(=O)[C@H](Cc1ccccc1)NC(=O)[C@@H]1CCCN1C(=O)[C@@H](N)Cc1ccc(O)cc1` [Endomorphin-2], the Emax (Mu Opioid Receptor (MOR) [1]) is reported as 97 ± 2%.

In the case of `COc1ccc2c3c1O[C@H]1C(=O)CC[C@@]4(O)[C@@H](C2)N(C)CC[C@]314` [Oxycodone], the Emax (Mu Opioid Receptor (MOR) [1]) is reported as 90 ± 8%, the “KOR antagonist activity (in words)” value [3] is reported as “no KOR antagonist activity” and the Emax at 10 µM [7] is reported as 9.6%. The “operational efficacy τ in vitro” value (MOR) was 3.3–5.2 and the “operational efficacy τ in vivo” value [8] was 20–39.

With `Fc1ccc(C(OCCN2CCN(CCCc3ccccc3)CC2)c2ccc(F)cc2)cc1` [GBR12909] the “SERT IMAX (transporter assay)” value [9] was 100 ± 0.4%.

For `CCC(=O)C(CC(C)N(C)C)(c1ccccc1)c1ccccc1` (stereo not shown) [methadone], the “operational efficacy τ in vivo” value [8] is listed as 39.

`CC[C@@H](c1cccc(O)c1)[C@@H](C)CN(C)C` [Tapentadol] gave an EC50 (Mu Opioid Receptor (MOR) [1]; MOR EC50 (35S-GTPγS)) of 1300 ± 530 nM, an Emax (Mu Opioid Receptor (MOR) [1]) of 73 ± 7% and an IC50 [9] of over 2000 nM. The Emax at 10 µM ([9]; read-out: SERT IMAX, in parentheses: maximum efficacy at 10 μM) was 68%, the Ki (Sigma-1 Receptor (σ1R)) was 2600 ± 410 nM and the “Potential new finding: σ1R binding (in words)” value (Sigma-1 Receptor (σ1R)) was “KOR partial agonist; σ1R binding”. The “σ1R binding affinity fold vs. MOR affinity” value (Sigma-1 Receptor (σ1R)) was “nearly the same affinity as the MOR and approximately equal affinity to MOR and same”, the Ki [2] was over 2000 nM and the Ki [10] was over 2000 nM. The “Potential new finding: activity at KOR (in words)” value [7] was “KOR partial agonist; σ1R binding”, the EC50 ([7]; KOR EC50 (35S-GTPγS)) was over 2000 nM and the Emax at 10 µM [7] was 13%. For the same molecule, the Ki [4] was over 2000 nM, the Ki (Mu Opioid Receptor (MOR) [11]) was 2100 ± 84 nM and the IC50 [5] was over 10000 nM. The Emax at 10 µM [5] was 19%, the IC50 [6] was over 2000 nM and the Emax at 10 µM [6] was 61%.

For `COc1ccc2c3c1O[C@H]1C(=O)CC[C@H]4[C@@H](C2)N(C)CC[C@]314` [Hydrocodone], the Ki (Sigma-1 Receptor (σ1R)) was 4000 ± 1300 nM and the “Potential new finding: σ1R binding (in words)” value (Sigma-1 Receptor (σ1R)) was “KOR partial agonist; CB1 partial agonist; σ1R binding”.

With Buprenorphine the “Potential new finding: activity at SERT (in words)” value [9] was “CB1 inverse agonist; Monoamine transporter activator”, the “SERT IMAX, in parentheses: maximum efficacy at 10 μM” value [9] was “(-20) %” and the “CB1 EMAX, in parentheses: maximum efficacy at 10 μM” value [12] was “(-38) %”. For the same molecule, the “Potential new finding: activity at CB1 (in words)” value [12] was “CB1 inverse agonist; Monoamine transporter activator”, the “DAT IMAX, in parentheses: maximum efficacy at 10 μM” value [5] was “(-67) %” and the DAT transport activation [5] was 67.2%. The “Potential new finding: activity at DAT (in words)” value [5] was “CB1 inverse agonist; Monoamine transporter activator”, the “NET IMAX, in parentheses: maximum efficacy at 10 μM” value [6] was “(-26) %” and the “Potential new finding: activity at NET (in words)” value [6] was “CB1 inverse agonist; Monoamine transporter activator”.

For `CN1CC[C@]23c4c5ccc(O)c4O[C@H]2[C@@H](O)C=C[C@H]3[C@H]1C5` [Morphine], the “operational efficacy τ in vivo” value ([8]; ref [13]–[15]) is given as 20–39 and 39, the EC50 [12] is given as over 2000 nM and the “Potential new finding: activity at CB1 (in words)” value [12] is given as “CB1 partial agonist”. The Emax at 10 µM ([12]; read-out: CB1 EMAX, in parentheses: maximum efficacy at 10 μM) was over 41.5%.

In the case of `CN(C)C[C@H]1CCCC[C@]1(O)c1cccc(O)c1` [O-Desmethyl-Tramadol, O-desmethyl-tramadol], the Ki ([2]; read-out: Target Binding Affinity Determined by Competition Radioligand Binding–KI, KOR) is reported as over 2000 nM, the “DOR EMAX (35S-GTPγS)” value [13] is reported as 38 ± 14% and the “Potential new finding: activity at DOR (in words)” value [13] is reported as “DOR/KOR partial agonist”. For the same molecule, the EC50 ([13]; read-out: DOR EC50 (35S-GTPγS)) was 361 nM and 360 nM, the “KOR EMAX, in parentheses: maximum efficacy at 10 μM” value [7] was “(5.9) %” and the “Potential new finding: activity at KOR (in words)” value [7] was “DOR/KOR partial agonist”. For the same molecule, the EC50 ([7]; read-out: KOR EC50 (35S-GTPγS)) was over 2000 nM, the “NET IMAX, in parentheses: maximum efficacy at 10 μM” value [6] was “(29) %” and the IC50 ([6]; read-out: NET IC50 (transporter assay)) was over 2000 nM.

For `CNCC[C@H](Oc1cccc2ccccc12)c1cccs1` [S-Duloxetine, S-duloxetine], the “AUC increase of buprenorphine anti-nociception (tail flick)” value (CD-1 mice; duloxetine 20 mg/kg intraperitoneal 10 minutes before buprenorphine 0.2 mg/kg subcutaneous, 52°C water, 2 hour time course) was 50.6%, the “Effect on oxymorphone anti-nociception (tail flick)” value (CD-1 mice; duloxetine 20 mg/kg intraperitoneal 10 minutes before oxymorphone 0.3 mg/kg subcutaneous, p > 0.05) was “no effect” and the “Effect on tail flick baselines” value (CD-1 mice; duloxetine 20 mg/kg intraperitoneal alone (followed by vehicle)) was “no effect”.
